The record followed here is ChEMBL document CHEMBL1201862, “PubChem BioAssay data set” (2004).

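A five-concentration, 48-hour dose response in 96-well plates underlies each endpoint, interpolated linearly between surrounding concentrations. GI50 is the concentration that inhibits growth by half.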 Active and inactive are the calls of the source. No stated cut-off is given here; in the data, active = GI50 up to about 1.1 µM and inactive = higher.

Experiment in all cases: NCI anticancer screen, dose series, 48 h
The test system of experiment [1] is NCI-H23.
For experiment [2], the system named is SN12C.
Experiment [3] relates to OVCAR-5.
Experiment [4] has as its system HL-60.
Experiment [5] has as its system UACC-62.
The test system of experiment [6] is TK-10.
The subject of experiment [7] is 786-0.
Experiment [8] relates to SNB-19.
Experiment [9] relates to ACHN.
Experiment [10] has as its system COLO 205.
Experiment [11] deals with HOP-62.
Experiment [12] has as its system SK-MEL-2.
Experiment [13] relates to OVCAR-8.
The test system of experiment [14] is NCI-H522.
Experiment [15] deals with SF-295.
The test system of experiment [16] is HCT-15.
The subject of experiment [17] is SNB-75.
The test system of experiment [18] is MDA-MB-435.
Experiment [19] relates to NCI/ADR-RES.

As to `CC1(C)OC(=O)C(=Cc2ccc(O)cc2)C(=O)O1`, the GI50 in experiment [1], in experiment [2], in experiment [3], in experiment [4], in experiment [5] and in [6] was > 100 µM (inactive) in each case. Further, the GI50 in experiment [7], in experiment [8], in [9], in [10], in [11] and in experiment [12] was > 100 µM (inactive) each time. Moreover, the GI50 in experiment [13] was > 100 µM (inactive); in experiment [14] it was > 100 µM (inactive); in experiment [15], > 100 µM (inactive); in experiment [16], above 100 µM.
Regarding `CCCCCN(CCCCC)C(=O)[C@H](CCC(=O)O)NC(=O)c1cc2ccccc2[nH]1`, the GI50 in experiment [1] is 28.2 µM (inactive); in experiment [2] it was 48.5 µM (inactive); in [17] it was 32.7 µM (inactive); in experiment [3], > 100 µM (inactive); in experiment [4], 29.3 µM (inactive); in experiment [5], 28.1 µM (inactive). For the same molecule, the GI50 in experiment [6] is > 100 µM (inactive); in [7], 92.7 µM (inactive); in [8], 35.6 µM (inactive); in [9], 49.2 µM (inactive); in experiment [10], > 100 µM (inactive); in [11] it was 56 µM (inactive). For the same molecule, the GI50 is 41.9 µM (inactive) in [12]; 77.1 µM (inactive) in [13]; 20.2 µM (inactive) in [14]; 57.8 µM (inactive) in [15]; 54.8 µM in experiment [16].
On to `NS(=O)(=O)c1ccc(NC(=S)NC=C2C(=O)c3ccccc3C2=O)cc1`, for which the GI50 is > 100 µM (inactive) in [1]; > 100 µM (inactive) in experiment [2]; 19.4 µM (inactive) in [17]; > 100 µM (inactive) in experiment [3]; > 100 µM (inactive) in experiment [4]; 56.2 µM (inactive) in experiment [5]. The GI50 is 46.6 µM (inactive) in [6]; > 100 µM (inactive) in experiment [7]; > 100 µM (inactive) in experiment [8]; > 100 µM (inactive) in [9]; > 100 µM (inactive) in [10]; > 100 µM (inactive) in [11]. Moreover, the GI50 in [12] is 62.1 µM (inactive); in [18], 91.4 µM (inactive); in experiment [14] it was 65.9 µM (inactive); in experiment [15] it was > 100 µM (inactive); in experiment [16], 38.9 µM.
Regarding `Nc1cc2c(C3OC(CO)C(O)C3O)n[nH]c2c(=S)[nH]1` (configuration not stated), the GI50 is > 100 µM (inactive) in [1]; > 100 µM (inactive) in experiment [2]; > 100 µM (inactive) in experiment [17]; > 100 µM (inactive) in [3]; 41.2 µM (inactive) in experiment [4]; > 100 µM (inactive) in experiment [5]. Further, the GI50 in [7] is > 100 µM (inactive); in experiment [8], > 100 µM (inactive); in [9], > 100 µM (inactive); in experiment [10], > 100 µM (inactive); in [11], > 100 µM (inactive); in [12] it was 98.2 µM (inactive). Further, the GI50 in [13] is > 100 µM (inactive); in experiment [14] it was > 100 µM (inactive); in experiment [15], > 100 µM (inactive); in [16], 94 µM.
As to `N#Cc1sc2nc3c(c(-c4ccccc4)c2c1N)CCCC3`, the GI50 in experiment [1], in experiment [2], in experiment [3], in [4], in experiment [5] and in experiment [6] was > 100 µM (inactive) throughout. In addition, the GI50 in experiment [7] was 46 µM (inactive); in experiment [8], 56.8 µM (inactive); in experiment [9], 76.9 µM (inactive); in experiment [11] it was > 10 µM (inactive); in experiment [12], > 100 µM (inactive); in experiment [13], > 100 µM (inactive). For the same molecule, the GI50 in experiment [14] is 66.5 µM (inactive); in experiment [15] it was 22.1 µM (inactive); in experiment [16], 60.5 µM.
For the molecule `Nc1ccc(/C=C/c2ccnc3ccccc23)cc1`, the GI50 in experiment [1] is 20 µM (inactive); in [17] it was 15.9 µM (inactive); in experiment [3], 19.6 µM (inactive); in experiment [4], 3.24 µM (inactive); in experiment [5], 23.4 µM (inactive); in experiment [6] it was 17.4 µM (inactive). Moreover, the GI50 in [7] was 18.6 µM (inactive); in [8], 27.6 µM (inactive); in [9], 19.2 µM (inactive); in [10], 22.9 µM (inactive); in [11], 15.3 µM (inactive); in experiment [12], 17.7 µM (inactive). Besides, the GI50 is 21.8 µM (inactive) in [13], 13.2 µM (inactive) in experiment [14], 16.1 µM (inactive) in experiment [15] and 21 µM in experiment [16].
Consider `COc1cccc(Nc2nc3c([nH]2)c(=O)n(C)c(=O)n3C)c1`, for which the GI50 in experiment [1], in experiment [2], in experiment [17], in experiment [4], in [5] and in experiment [6] was > 10 µM (inactive) throughout. In addition, the GI50 in experiment [7], in [10], in experiment [11], in experiment [13], in experiment [18] and in experiment [15] was > 10 µM (inactive) throughout. Besides, the GI50 in [16] was above 10 µM.
In the case of `CN(C)Nc1cc(=O)[nH]c(=O)[nH]1`, the GI50 in [2], in experiment [3], in experiment [4], in experiment [6], in [7] and in experiment [8] was > 100 µM (inactive) each time. Moreover, the GI50 in experiment [9], in [10], in experiment [11], in experiment [19], in experiment [13] and in experiment [18] was > 100 µM (inactive) in each case. In addition, the GI50 in experiment [15] was > 100 µM (inactive); in [16], above 100 µM.
For the molecule `C=CCCC1CCCCNC1=S` (configuration not stated), the GI50 in [1], in [2], in experiment [3], in experiment [4], in experiment [5] and in experiment [6] was > 10 µM (inactive) in each case. Moreover, the GI50 in [7], in [8], in [9], in experiment [10], in experiment [11] and in experiment [12] was > 10 µM (inactive) throughout. The GI50 is > 10 µM (inactive) in [19]; > 10 µM (inactive) in [13]; > 10 µM (inactive) in [18]; > 10 µM (inactive) in experiment [15]; above 10 µM in experiment [16].
With `COC(=O)c1cc(-c2c[nH]cc2C(=O)OCc2ccccc2)cn1S(=O)(=O)c1ccc(C)cc1`, the GI50 in experiment [1] is 6.61 µM (inactive); in experiment [2], > 100 µM (inactive); in experiment [17], > 100 µM (inactive); in experiment [3], > 100 µM (inactive); in experiment [5] it was > 100 µM (inactive); in experiment [6] it was > 100 µM (inactive). The GI50 in [7], in experiment [8], in experiment [9], in experiment [10], in experiment [11] and in experiment [12] was > 100 µM (inactive) in each case. For the same molecule, the GI50 in [19] was 66.7 µM (inactive); in [13], > 100 µM (inactive); in [14] it was > 100 µM (inactive); in experiment [15], > 100 µM (inactive); in [16] it was above 100 µM.
Consider `CC1C(NNc2ccccc2)Oc2cc3c(cc2C1c1ccccc1O)OCO3` (configuration not stated), for which the GI50 in experiment [1] was 12.8 µM (inactive); in experiment [2], 5.79 µM (inactive); in experiment [17], 10.1 µM (inactive); in experiment [3], 4.61 µM (inactive); in experiment [4] it was 4.01 µM (inactive); in experiment [5] it was 1.44 µM (inactive). For the same molecule, the GI50 in experiment [6] was 4.81 µM (inactive); in experiment [7], 5.53 µM (inactive); in experiment [8] it was 14.3 µM (inactive); in [9], 0.962 µM (active); in [10], 11.3 µM (inactive); in [11], 3.1 µM (inactive). Also, the GI50 is 10.9 µM (inactive) in experiment [12]; 10 µM (inactive) in [13]; 0.946 µM (active) in experiment [18]; 0.575 µM (active) in [14]; 0.632 µM (active) in [15]; 1.7 µM in experiment [16].
With `CC(c1ccccc1)N1O[C@]12CC[C@@]1(C)C(CCCC13OCCO3)C2` (some centres not stated), the GI50 is 38.4 µM (inactive) in experiment [1]; 29 µM (inactive) in experiment [2]; 22.1 µM (inactive) in experiment [17]; > 100 µM (inactive) in [3]; 19.6 µM (inactive) in experiment [5]; 18.3 µM (inactive) in [6]. For the same molecule, the GI50 was 19.4 µM (inactive) in experiment [7]; > 100 µM (inactive) in [8]; 16.5 µM (inactive) in experiment [9]; 17.8 µM (inactive) in experiment [10]; > 100 µM (inactive) in [11]; 16.7 µM (inactive) in experiment [13]. Besides, the GI50 in experiment [14] was 17.2 µM (inactive); in experiment [15], 22 µM (inactive); in [16], 23.3 µM.
For the molecule `O=C(Nn1c(-c2cccs2)nc2ccc(I)cc2c1=O)c1ccccc1`, the GI50 is 21.2 µM (inactive) in experiment [1]; 35.6 µM (inactive) in experiment [2]; 37.8 µM (inactive) in experiment [3]; 20.6 µM (inactive) in experiment [5]; 30.3 µM (inactive) in experiment [6]; 43.2 µM (inactive) in experiment [7]. Also, the GI50 is 21.3 µM (inactive) in experiment [8]; 30.7 µM (inactive) in experiment [9]; 30.7 µM (inactive) in [10]; 40.7 µM (inactive) in experiment [11]; 31.8 µM (inactive) in experiment [19]; 39 µM (inactive) in experiment [13]. In addition, the GI50 in experiment [18] was 20.6 µM (inactive); in [14] it was 22.1 µM (inactive); in [15] it was 26.9 µM (inactive); in [16] it was 30.6 µM.
